# Ends that are not written are not given here. PEG 20 kDa = 20 kDa PEG attached through the N-terminal amino group; l = locked nucleic acid (LNA); {C6NH2} = Amino C6 linker; d = 2'-deoxy (DNA); r = 2'-OH (RNA); f = 2'-fluoro
# B1: IgA-binding peptide modified with 20 kDa PEG (peptide)
# peptide: HMVCLSYRGRPVCFSL
# modifications: one molecule of 20 kDa PEG (succinimide-activated) attached via the amino group at the N-terminus
# Assays:
# human IgA = experiment: Reaction inhibitory effect on human IgA, Bio-Layer Interferometry (Octet R2), anti-human IgA antibody and human IgA; format: binding; details: for Response: human IgA, not added 2.1381
# Description: (§1) As a model system to confirm the non-specific inhibitory effect, an anti-human IgG antibody and human IgG, or an anti-human IgA antibody and human IgA were used, and the reaction inhibitory effect on the IgG-binding peptide or the IgA-binding peptide with smaller molecular weights than antibody fragments, with or without PEG modification, was confirmed.
# (§2) The measurements were performed using Bio-Layer Interferometry (BLI) using Octet(trademark) R2 (manufactured by SARTORIUS), which was a biomolecular interaction analysis system. The basic principles of the Bio-Layer Interferometry are briefly explained below. When light of a specific wavelength is projected onto a layer of biomolecules fixed on the surface of a sensor chip, the light is reflected from both the surface of the biomolecular layer and the internal reference layer, resulting in an optical interference wave. When molecules in the measurement sample bind to the biomolecules on the surface of the sensor chip, the thickness of the layer at the tip of the sensor increases, causing a wavelength shift in the interference wave. By measuring this change in wavelength shift, it is possible to quantify and kinetically analyze in real time the number of molecules that bind to the biomolecules immobilized on the sensor chip surface. In this Example, the test sample and a non-specific reaction inhibitor were allowed to coexist in the measurement sample, and human IgG or human IgA was absorbed in the sample solution. The measurements were carried out according to the operating manual attached to the OctetR2.
# (§3) As an antibody solution, an anti-human IgA polyclonal rabbit antibody (manufactured by Dako) was diluted with PBS(−) to 25 μg/mL to prepare an anti-human IgA antibody solution. As a sample solution, the test sample was human IgA adjusted to 250 μg/mL in PBS(−), and to 20 μL of this test sample, the IgA-binding peptide or the IgA-binding peptide modified with 20 kDa PEG was added to a final concentration of 25 μg/mL or 50 μg/mL, respectively, and the total volume was adjusted to 200 μL to prepare the R1.
# Measurements using OctetR2 were performed in the same manner as for confirming the reaction inhibitory effect on human IgG.
# human IgG [1] = experiment: Reaction inhibitory effect of IgG-binding nucleic acid aptamer on anti-human IgG antibody and human IgG, Bio-Layer Interferometry; details: 0.3 mg/mL; not added 7.9093
# Description: For nucleic acid aptamers, the reaction inhibitory effect with or without PEG modification was confirmed using a model system to confirm the non-specific inhibitory effect in the same manner as in Example 2.
# The test sample and measurements were performed under the same assay conditions as in Example 2. In this Example, the test sample and a non-specific reaction inhibitor were allowed to coexist in the measurement sample, and human IgG was absorbed in the sample solution. The measurements were carried out according to the operating manual attached to the OctetR2.
# Anti-human IgG polyclonal rabbit antibody (manufactured by Dako) was diluted with PBS(−) to 25 μg/mL to prepare an anti-human IgG antibody solution. The sample solution used was human IgG at 1 mg/mL in PBS(−), with 20 μL of this test sample, and either the IgG-binding nucleic acid aptamer or the IgG-binding nucleic acid aptamer modified with 20 kDa PEG added to a final concentration of 0.3 mg/mL, and then prepared with reaction buffer (145 mmol/L NaCl, 5.4 mmol/L KCl, 0.8 mmol/L MgCl2, 1.8 mmol/L CaCl2, 20 mmol/L Tris (pH 7.6), 0.05% Tween 20) to make a total volume of 200 μL.
# human IgG [2] = experiment: Reaction inhibitory effect on human IgG, Bio-Layer Interferometry (Octet R2), anti-human IgG antibody and human IgG; format: binding; details: for Response: human IgG, not added 6.6462
# Description: as §1, §2
# as §3, with “IgG” for “IgA”, “1 mg/mL” for “250 μg/mL”, “IgG-binding” for “IgA-binding”, “first reagent (hereinafter referred to as R1) of LPIA Genesis TAT (manufactured by LSI Medience Corporation), which was a thrombin-antithrombin III complex (hereinafter referred to as TAT) measurement reagent.” for “R1.”
# The sample solution and the anti-human IgG antibody solution were added to the designated wells of a 96-well black plate (manufactured by Greiner Bio-One) at 200 μL per well. To the baseline, dissociation and washing wells, 200 μL of PBS(−) was added. This plate and a biosensor (Biosensor/ProL: manufactured by SARTRIUS) were placed in the designated positions of the OctetR2. After operating the OctetR2 under the conditions shown in Table 1 below and acquiring data, the wavelength shift change (Response) was calculated using the analysis software included with the OctetR2. The measurements were carried out at a temperature of 30° C.
# [3] = tested on: non-specific reaction substances of sample A, human plasma; experiment: Non-specific inhibitory effect in latex agglutination method on automatic analyzer STACIA (LPIA Genesis TAT)
# Description: The non-specific inhibitory effect of the IgG-binding peptide and PEG-modified IgG-binding peptide used in Example 2 was confirmed by the latex agglutination method.
# The measurements were performed using automated operation of an automatic analyzer, STACIA (manufactured by LSI Medience Corporation). In the STACIA measurement, two main operations were carried out. In the first operation, the sample to be measured was diluted with R1 and heated at 37° C. for 3.5 minutes. In the second operation, R2 was added to the reaction solution and the mixture was incubated at 37° C. for 6 minutes to induce latex agglutination. By optically monitoring the agglutination reaction, the amount of TAT or non-specific reaction substances in the samples to be measured was quantified. In this Example, the non-specific reaction inhibitor was added to R1 so that the concentration after sample addition was 0.05 mg/mL or 0.1 mg/mL, and non-specific reaction substances were absorbed during the first operation. […] The mixture ratio of the measurement sample, R1, and R2 was 20 μL:90 μL:90 μL. Latex agglutination was detected at a wavelength of 700 nm. The measured values were calculated by comparing the absorbance with a calibration curve obtained by measuring TAT of known concentrations. The test sample used was the same as sample A used in Examples 3 to 5.
# [4] = tested on: non-specific reaction substance (IgG) of sample A, human plasma; experiment: Non-specific reaction inhibitory effect, Bio-Layer Interferometry, sample A (human plasma) against anti-TAT antibody; format: binding
# Description: The measurement was carried out under the same assay conditions as described in Example 2. In this Example, sample A and a non-specific reaction inhibitor were allowed to coexist in the measurement sample, and the non-specific reaction substances were absorbed in the sample solution.
# The antibody solution used was an anti-TAT antibody solution prepared by diluting the anti-TAT antibody used in the second reagent (hereinafter referred to as R2) of LPIA Genesis TAT, which was characterized by containing latex particles to which a monoclonal antibody with specific binding ability to TAT was immobilized, with PBS(−) to a concentration of 25 μg/mL. The sample solution was prepared by adding a final concentration of 25 μg/mL or 50 μg/mL of IgG-binding peptide or 20 kDa PEG-modified IgG-binding peptide as a non-specific reaction inhibitor to 20 μL of the test sample diluted 10-fold with PBS(−), and adjusting the total volume to 200 μL with R1.
# Using the same assay conditions as those described in Example 3, the non-specific reaction inhibitory effects of the PEG-modified peptides described in Examples 2 and 3 and the prepared PEG-modified antibody fragment were compared. The amounts of non-specific reaction inhibitor added were 25 μg/mL, 50 μg/mL, 100 μg/mL, 200 μg/mL, or 400 μg/mL, and the test sample was the same as sample A in Example 3.
# The assay was carried out under the same conditions as described in Example 3. As non-specific reaction inhibitors, sample solutions were prepared to which PEG-modified peptides chemically modified with 5 kDa, 10 kDa, 20 kDa, and 30 kDa PEG were added, and the non-specific reaction inhibitory effect of each was confirmed. The amounts of non-specific reaction inhibitors added were 5 μg/mL, 10 μg/mL, or 20 μg/mL, and the test sample was the same as Sample A in Examples 3 and 4.
# [5] = tested on: human IgG (polyclonal immunoglobulin G) (Homo sapiens); experiment: BLI; details: upper case RNA, lower case DNA; 2'-F at U6, U9, C20, U21; LNA at A18; 5' amino C6 linker conjugated to 20 kDa PEG (Jenkem ME); response of IgG on immobilised anti-human IgG antibody with 0.3 mg/mL PEG-aptamer (7.9093 nm without inhibitor); indirect, inhibition of IgG-antibody reaction …
# human IgA (human) [6] = experiment: BLI (Octet R2) competition: human IgA on immobilised anti-human IgA antibody with 25 µg/mL of the peptide
# human IgA (human) [7] = experiment: BLI (Octet R2) competition: human IgA on immobilised anti-human IgA antibody with 50 µg/mL of the peptide
# [8] = amount added 0.05 mg/mL, not added 32.01
# [9] = amount added 0.1 mg/mL, not added 27.17
# [10] = amount added 25 μg/mL, not added 5.7733
# [11] = amount added 50 μg/mL, not added 5.7733
molecule,measurement,setting,value
"IgA-binding peptide: human IgA-binding peptide of approximately 1.8 kDa, amino acid sequence HMVCLSYRGRPVCFSL (SEQ ID NO: 2), reported for purification of human IgA [reference compound]",Response,human IgA; amount added 25 μg/mL,2.1805 nm
same,Response,human IgA; amount added 50 μg/mL,2.2263 nm
"IgG-binding nucleic acid aptamer: human IgG-binding nucleic acid aptamer of approximately 7.5 kDa, N(6)_ggAGGU(F)GcU(F)ccgaaaGGA(L)aC(F)U(F)cc (DNA GGAGGUGCUCCGAAAGGAACUCC; sugars from the 5' end ddrrrfrdfddddddrrldffdd, 5' {C6NH2}, backbone and methylation of C not given here; further chemistry not fully specified)",Human IgG (Response),human IgG [1],7.6691 nm
PEG-modified IgG-binding peptide: IgG-binding peptide (SEQ ID NO: 1) with one molecule of 20 kDa PEG attached via the N-terminal amino group ({PEG 20 kDa}-DCAWHLGELVWCT; cysteine pairing not given here),Response,human IgG [2]; amount added 25 μg/mL,3.1484 nm
same,Response,human IgG [2]; amount added 50 μg/mL,2.6181 nm
same,reaction inhibitory effect compared with the unmodified peptide,human IgG [2]; anti-human IgG antibody and human IgG,stronger reaction inhibitory effect
same,Sample A measured value (TAT calibration curve),[3]; [8],10.84 ng/mL
same,Sample A measured value (TAT calibration curve),[3]; [9],6.25 ng/mL
same,effect in suppressing the non-specific reaction compared with the unmodified peptide,[4],greater effect in suppressing the non-specific reaction than the unmodified peptide
same,effect on inhibiting non-specific reactions compared with PEG-modified antibody fragment,[4]; added in equal amounts,greater effect on inhibiting non-specific reactions than the PEG-modified antibody fragment
same,Response,"[4]; amount added 5 μg/mL, not added 6.0114",5.5469 nm
same,Response,"[4]; amount added 10 μg/mL, not added 6.0114",5.0054 nm
same,Response,"[4]; amount added 20 μg/mL, not added 6.0114",3.8339 nm
same,Response,[4]; [10],3.0487 nm
same,Response,[4]; [11],2.9829 nm
same,Response,"[4]; amount added 100 μg/mL, not added 5.7733",3.1926 nm
same,Response,"[4]; amount added 200 μg/mL, not added 6.0744",2.8092 nm
same,Response,"[4]; amount added 400 μg/mL, not added 6.0744",3.0917 nm
GGAGGUGCUCCGAAAGGAACUCC [PEG-modified IgG-binding nucleic acid aptamer],activity,[5],4.96 nm
PEG-modified IgA-binding peptide: IgA-binding peptide (SEQ ID NO: 2) with one molecule of 20 kDa PEG attached via the N-terminal amino group,Response,human IgA; amount added 25 μg/mL,1.6061 nm
same,Response,human IgA; amount added 50 μg/mL,1.5374 nm
same,reaction inhibitory effect compared with the unmodified peptide,human IgA; anti-human IgA antibody and human IgA,stronger reaction inhibitory effect
"IgG-binding peptide: human IgG-binding peptide of approximately 1.5 kDa, amino acid sequence DCAWHLGELVWCT (SEQ ID NO: 1), known for purification of human IgG (human IgG binding peptide) [reference compound]",Response,human IgG [2]; amount added 25 μg/mL,7.4221 nm
same,Response,human IgG [2]; amount added 50 μg/mL,7.6293 nm
same,Sample A measured value (TAT calibration curve),[3]; [8],37.7 ng/mL
same,Sample A measured value (TAT calibration curve),[3]; [9],42.85 ng/mL
same,Response,[4]; [10],6.5522 nm
same,Response,[4]; [11],6.6331 nm
HMVCLSYRGRPVCFSL [human IgA-binding peptide of approximately 1.8 kDa],Response [nm],human IgA (human) [6],2.18 nm
same,Response [nm],human IgA (human) [7],2.23 nm
B1,Response [nm],human IgA (human) [6],1.61 nm
same,Response [nm],human IgA (human) [7],1.54 nm

# Reference: patent publication US20250216399A1, “NONSPECIFIC REACTION INHIBITOR” (PHC CORPORATION, priority 2022, published 2025)
